According to patent publication US20210299116A1, “METHODS FOR REDUCING ABNORMAL SCAR FORMATION” (CORNELL UNIVERSITY, priority 2018, published 2021):
Entries after “also recorded” stand apart in the source; their conditions may differ.

Assays:
[1] = system: incisional wound in C57bl/6 mice; experiment: rodent incisional wound model, incision sutured with silk imbedded with drug; format: in vivo, mouse
Description: As there are no murine models for hypertrophic or keloid scarring, the inventors relied on a classic rodent incisional wound model consisting of a longitudinal para-vertebral incision 1-2 cm long through the entire thickness of the skin and cutaneous muscle. Wounds (WD) and size matched pieces of dorsal dermis (CTR) were excised and processed for light and polarized light microscopy: fixation, embedding, sectioning and stained with hematoxylin-eosin (inflammatory cells) and Gomori Trichrome (collagen staining), tensile strength measurements and qPCR.
In some experiments, a drug was delivered locally and directly to the wound. In some embodiments, the drug was impregnated in the wound closure material, silk suture. In some experiments, the drug was eluted into the wound during wound healing leading to closure and scar formation. Wound healing was monitored over 14 days.
Wounds (WD) and size matched pieces of dorsal dermis (CTR) were excised and processed for light microscopy: fixation, embedding, sectioning and stained with hematoxylin-eosin (inflammatory cells) and Gomori Trichrome (collagen staining).
Using wild type C57bl/6 mice, wound healing experiments were next performed where the incision was sutured with silk imbedded with ketotifen, a mast cell stabilizer. This way the drug could be delivered continuously and locally during wound healing.

[2] = system: HLF cells (fibroblasts); experiment: in vitro gel contraction assay; format: cell-based; conditions: for TGF-β induced fibroblast contracture (gel contraction): TGF-β + RXD, 48 hour incubation
Experimental: Evaluation of fibroblasts contractility was performed as previously described by […] et al (Bio-protocol 8(18): e3021, 2018). Briefly, HLF cells are resuspended in 1 mg/ml collagen and then pipetted into 24 well plates. Collagen is allowed to solidify for 30 minutes at room temperature. Media (500 μl) is then added to each of the wells and the gels are dissociated from the walls of the well. Gels are treated and allowed to incubate for 48 hours at 37° C. and 5% CO2. After the 48 hour incubation, gels are stained with crystal violet stain in order to better visualize contraction. Images are analyzed using Image J software and the fold change compared to a no cell control is determined.

[3] = system: smooth muscle actin (SMA) in fibroblasts; experiment: TGF-β induced smooth muscle actin (SMA) in fibroblasts (Western blot, immunohistochemistry); format: cell-based; conditions: TGF-β stimulated fibroblasts
Description: Scar contracture is a painful aspect of hypertrophic scarring due to increased SMA in the fibroblasts. During the inflammatory phase of wound healing, the cytokine transforming growth factor β (TGF-β) is secreted and can activate fibroblasts to produce SMA.

[4] = 14 days post-incision, C57bl/6 mice, ketotifen-impregnated silk vs untreated silk

CN1CCC(=C2c3ccccc3CC(=O)c3sccc32)CC1 [ketotifen]
relative abundance of newly synthesized collagen III mRNA in excised wound scar (q-PCR) ([1]; 14-day, drug group compared to untreated): significantly less
inflammatory response to the incisional wound (immune cells in H&E stained scar) ([1]; 7 days post-incision, C57bl/6 mice, ketotifen eluted from silk suture vs untreated wound): lessens the inflammatory response
scar collagen content (Gomori trichrome stain) [1, 4]: decreases
scar width (Gomori trichrome stain) [1, 4]: significantly less; also recorded: decreases
tensile strength of the scar (peak tension, tensitometry) ([1]; 14 days post-incision, ketotifen-treated vs untreated mice): not affected
newly synthesized collagen III in wound scar (birefringence microscopy) ([1]; ketotifen eluted from suture vs suture alone): less newly synthesized collagen III; also recorded: decreases newly synthesized collagen (III)

Cc1nc(C(=O)NCC(=O)O)c(O)c2ccc(Oc3ccccc3)cc12 [RXD, N-[(4-hydroxy-1-methyl-7-phenoxyisoquinolin-3-yl)carbonyl]glycine]
fibroblast gel contraction, change from control ([2]; RXD added alone, vs control): significant changes
TGF-β induced fibroblast contracture (gel contraction) [2]: inhibited
TGF-β induced fibroblast contracture (gel contraction) ([2]; listed as Roxadustat): significantly reduces
SMA staining of fibroblasts (immunohistochemistry) [3]: inhibited
abundance of TGF-β induced SMA in fibroblasts (Western blot) [3]: inhibited
abundance of TGF-β induced SMA in fibroblasts (Western blot) ([3]; listed as Roxadustat): significantly reduces
